Experimental data as given in BigSolDB 2.1.

Oc1ccc(/C=C/c2cc(O)cc(O)c2)cc1
solubility (mole fraction)
Conditions | in dichloromethane | in ethanol | in methanol | in n-butanol | in n-propanol
283.15 K | 1.23e-06 | 0.0212 | 0.0174 | 0.0103 | 0.0134
288.15 K | 1.57e-06 | 0.0224 | 0.0182 | 0.0112 | 0.0145
293.15 K | 2e-06 | 0.0236 | 0.019 | 0.0121 | 0.0156
298.15 K | 2.53e-06 | 0.0248 | 0.0198 | 0.013 | 0.0168
303.15 K | 3.13e-06 | 0.0261 | 0.0206 | 0.014 | 0.018
